Measurements from ChEMBL document CHEMBL4609985, “Superior inhibition of influenza virus hemagglutinin-mediated fusion by indole-substituted spirothiazolidinones” (Bioorg Med Chem, 2020).

What was measured:
[1] = Cytotoxicity against MDCK cells assessed as reduction in cell viability after 4 days by MTS assay; type: cell-based, Canis lupus familiaris; conditions: dog
Influenza A virus H3N2 [2] = test: Antiviral activity against Influenza A virus H3N2 A/HK/7/87 infected in MDCK cells assessed as reduction in virus induced cytopathic effect after 4 days by microscopy based method; type: functional, organism-based; conditions: A/HK/7/87, MDCK, 96 h
Influenza A virus H3N2 [3] = test: Antiviral activity against IInfluenza A virus H3N2 A/HK/7/87 infected in MDCK cells after 4 days by MTS assay; type: functional, organism-based; conditions: A/HK/7/87, MDCK, 96 h
[4] = Cytotoxicity against MDCK cells assessed as minimum cytotoxic concentration after 4 days by MTS assay; type: cell-based, Canis lupus familiaris; conditions: dog
[5] = Inhibition of influenza H3N2 A/X-31 hemagglutinin 3 expressed in HeLa cells assessed as polykaryon formation preincubated for 15 mins and further incubated for 15 mins with acidic buffer containing compounds at pH 5.2 by giemsa staining based microscopic analysis; type: cell-based, Influenza A virus (A/X-31(H3N2)); conditions: Influenza A virus
[6] = Selectivity index, ratio of CC50 for MDCK cells to EC50 for antiviral activity against Influenza H3N2 A/HK/7/87 infected in MDCK cells after 4 days by MTS assay; type: toxicity, cell-based; conditions: dog, read-out: Ratio CC50/EC50

**Q.** For Cc1c(C(=O)NN2C(=O)CSC23CCC(C)CC3)[nH]c2ccc(Cl)cc12 (centres undefined), which CC50 at 96 h [1] is on record?
**A.** > 100 µM

**Q.** And the EC50 (Influenza A virus H3N2 [2])?
**A.** > 100 µM

**Q.** What about the EC50 (Influenza A virus H3N2 [3]) of the same molecule?
**A.** > 100 µM

**Q.** And the MCC at 96 h [4]?
**A.** ≥ 100 µM

**Q.** With Cc1c(C(=O)NN2C(=O)C(C)SC23CC(C)CC(C)(C)C3)[nH]c2ccc(Cl)cc12 (centres undefined) as the molecule, how does the CC50 at 96 h [1] read?
**A.** 85 µM

**Q.** And the EC50 (Influenza A virus H3N2 [2])?
**A.** > 100 µM

**Q.** What about the EC50 (Influenza A virus H3N2 [3]) of the same molecule?
**A.** > 100 µM

**Q.** And the MCC at 96 h [4]?
**A.** 20 µM

**Q.** Which CC50 at 96 h [1] does the source give for Cc1c(C(=O)NN2C(=O)CSC23CCCCC3)[nH]c2ccc(Cl)cc12 here?
**A.** > 100 µM

**Q.** What about the EC50 (Influenza A virus H3N2 [2]) of the same molecule?
**A.** > 100 µM

**Q.** What about the EC50 (Influenza A virus H3N2 [3]) of the same molecule?
**A.** > 100 µM

**Q.** What about the MCC at 96 h [4] of the same molecule?
**A.** > 100 µM

**Q.** Which CC50 at 96 h [1] does the source give for NC(=O)c1ncn([C@@H]2O[C@H](CO)[C@@H](O)[C@H]2O)n1 [RIBAVIRIN] here?
**A.** > 100 µM

**Q.** What about the EC50 (Influenza A virus H3N2 [2]) of the same molecule?
**A.** 8.4 µM

**Q.** And the EC50 (Influenza A virus H3N2 [3])?
**A.** 4.6 µM

**Q.** And the MCC at 96 h [4]?
**A.** ≥ 100 µM

**Q.** Which CC50 at 96 h [1] does the source give for Cc1c(C(=O)NN2C(=O)CSC23CCCC(C)C3)[nH]c2ccc(Cl)cc12 (centres undefined) here?
**A.** > 100 µM

**Q.** And the EC50 (Influenza A virus H3N2 [2])?
**A.** > 100 µM

**Q.** And the EC50 (Influenza A virus H3N2 [3])?
**A.** > 100 µM

**Q.** What about the MCC at 96 h [4] of the same molecule?
**A.** ≥ 100 µM

**Q.** For CCC1CCC2(CC1)SCC(=O)N2NC(=O)c1[nH]c2ccc(Cl)cc2c1C (centres undefined), which CC50 at 96 h [1] is on record?
**A.** 94 µM

**Q.** What about the EC50 (Influenza A virus H3N2 [2]) of the same molecule?
**A.** > 100 µM

**Q.** What about the EC50 (Influenza A virus H3N2 [3]) of the same molecule?
**A.** > 100 µM

**Q.** What about the MCC at 96 h [4] of the same molecule?
**A.** ≥ 4 µM

**Q.** For CCCC1CCC2(CC1)SCC(=O)N2NC(=O)c1[nH]c2ccc(Cl)cc2c1C (centres undefined), which CC50 at 96 h [1] is on record?
**A.** 1.3 µM

**Q.** And the EC50 (Influenza A virus H3N2 [2])?
**A.** > 100 µM

**Q.** What about the EC50 (Influenza A virus H3N2 [3]) of the same molecule?
**A.** > 100 µM

**Q.** What about the MCC at 96 h [4] of the same molecule?
**A.** 0.8 µM

**Q.** Which CC50 at 96 h [1] does the source give for Cc1c(C(=O)NN2C(=O)C(C)SC23CCCC3)[nH]c2ccc(Cl)cc12 (centres undefined) here?
**A.** > 100 µM

**Q.** What about the EC50 (Influenza A virus H3N2 [2]) of the same molecule?
**A.** > 100 µM

**Q.** What about the EC50 (Influenza A virus H3N2 [3]) of the same molecule?
**A.** > 100 µM

**Q.** What about the MCC at 96 h [4] of the same molecule?
**A.** > 100 µM

**Q.** For Cc1c(C(=O)NN2C(=O)C(C)SC23CCCCC3C)[nH]c2ccc(Cl)cc12 (centres undefined), which CC50 at 96 h [1] is on record?
**A.** 88 µM

**Q.** What about the EC50 (Influenza A virus H3N2 [2]) of the same molecule?
**A.** > 100 µM

**Q.** What about the EC50 (Influenza A virus H3N2 [3]) of the same molecule?
**A.** > 100 µM

**Q.** What about the MCC at 96 h [4] of the same molecule?
**A.** ≥ 20 µM

**Q.** With Cc1c(C(=O)NN2C(=O)CSC23CC(C)CC(C)(C)C3)[nH]c2ccc(Cl)cc12 (centres undefined) as the molecule, how does the CC50 at 96 h [1] read?
**A.** > 100 µM

**Q.** What about the EC50 (Influenza A virus H3N2 [2]) of the same molecule?
**A.** > 100 µM

**Q.** And the EC50 (Influenza A virus H3N2 [3])?
**A.** > 100 µM

**Q.** And the MCC at 96 h [4]?
**A.** > 100 µM

**Q.** With Cc1c(C(=O)NN2C(=O)CSC23CCCCC3C)[nH]c2ccc(Cl)cc12 (centres undefined) as the molecule, how does the CC50 at 96 h [1] read?
**A.** > 100 µM

**Q.** And the EC50 (Influenza A virus H3N2 [2])?
**A.** > 100 µM

**Q.** And the EC50 (Influenza A virus H3N2 [3])?
**A.** > 100 µM

**Q.** And the MCC at 96 h [4]?
**A.** ≥ 20 µM

**Q.** For Cc1c(C(=O)NN2C(=O)C(C)SC23CCC(c2ccccc2)CC3)[nH]c2ccc(Cl)cc12 (centres undefined), which CC50 at 96 h [1] is on record?
**A.** 2.3 µM

**Q.** What about the EC50 (Influenza A virus H3N2 [2]) of the same molecule?
**A.** > 100 µM

**Q.** And the EC50 (Influenza A virus H3N2 [3])?
**A.** > 100 µM

**Q.** And the MCC at 96 h [4]?
**A.** 1 µM

**Q.** For CC(C)(C)c1cc(O)ccc1O [E319], which EC50 [5] is on record?
**A.** 9.9 µM

**Q.** Which CC50 at 96 h [1] does the source give for Cc1c(C(=O)NN2C(=O)C(C)SC23CCCC(C)C3)[nH]c2ccc(Cl)cc12 (centres undefined) here?
**A.** 33 µM

**Q.** And the EC50 (Influenza A virus H3N2 [2])?
**A.** 0.031 µM

**Q.** What about the EC50 (Influenza A virus H3N2 [3]) of the same molecule?
**A.** 0.023 µM

**Q.** And the MCC at 96 h [4]?
**A.** ≥ 4 µM

**Q.** What about the EC50 [5] of the same molecule?
**A.** 1.4 µM

**Q.** And the selectivity ratio at 96 h [6]?
**A.** 1440

**Q.** Which CC50 at 96 h [1] does the source give for Cc1nc2sccn2c1C(=O)NN1C(=O)C(C)SC12CCC(C)CC2 (centres undefined) here?
**A.** > 100 µM

**Q.** And the EC50 (Influenza A virus H3N2 [2])?
**A.** 5 µM

**Q.** What about the EC50 (Influenza A virus H3N2 [3]) of the same molecule?
**A.** 3.2 µM

**Q.** What about the MCC at 96 h [4] of the same molecule?
**A.** ≥ 100 µM

**Q.** And the EC50 [5]?
**A.** 1.1 µM

**Q.** And the selectivity ratio at 96 h [6]?
**A.** > 31

**Q.** Which CC50 at 96 h [1] does the source give for Cc1c(C(=O)NN2C(=O)CSC23CCC(c2ccccc2)CC3)[nH]c2ccc(Cl)cc12 (centres undefined) here?
**A.** 2.4 µM

**Q.** What about the EC50 (Influenza A virus H3N2 [2]) of the same molecule?
**A.** > 100 µM

**Q.** What about the EC50 (Influenza A virus H3N2 [3]) of the same molecule?
**A.** > 100 µM

**Q.** And the MCC at 96 h [4]?
**A.** 5 µM

**Q.** What does the source list for Cc1c(C(=O)NN2C(=O)C(C)SC23CCC(C)CC3)[nH]c2ccc(Cl)cc12 (centres undefined)?
**A.** CC50 at 96 h [1]: 2.8 µM; EC50 (Influenza A virus H3N2 [2]): 0.063 µM; EC50 (Influenza A virus H3N2 [3]): 0.045 µM; MCC at 96 h [4]: 0.87 µM; EC50 [5]: 2.1 µM; selectivity ratio at 96 h [6]: 62

**Q.** Which results are given for Cc1c(C(=O)NN2C(=O)C(C)SC23CCCCC3)[nH]c2ccc(Cl)cc12 (centres undefined)?
**A.** CC50 at 96 h [1]: 5.8 µM; EC50 (Influenza A virus H3N2 [2]): 0.085 µM; EC50 (Influenza A virus H3N2 [3]): 0.063 µM; MCC at 96 h [4]: ≥ 4 µM; EC50 [5]: 1.3 µM; selectivity ratio at 96 h [6]: 92

**Q.** What does the source list for CCCC1CCC2(CC1)SC(C)C(=O)N2NC(=O)c1[nH]c2ccc(Cl)cc2c1C (centres undefined)?
**A.** CC50 at 96 h [1]: 1.9 µM; EC50 (Influenza A virus H3N2 [2]): > 100 µM; EC50 (Influenza A virus H3N2 [3]): > 100 µM; MCC at 96 h [4]: 0.8 µM

**Q.** For Cc1c(C(=O)NN2C(=O)CSC23CCC(C(C)(C)C)CC3)[nH]c2ccc(Cl)cc12 (centres undefined), which CC50 at 96 h [1] is on record?
**A.** 2.1 µM

**Q.** What about the EC50 (Influenza A virus H3N2 [2]) of the same molecule?
**A.** > 100 µM

**Q.** And the EC50 (Influenza A virus H3N2 [3])?
**A.** > 100 µM

**Q.** And the MCC at 96 h [4]?
**A.** 0.8 µM

**Q.** Which CC50 at 96 h [1] does the source give for CCC1CCC2(CC1)SC(C)C(=O)N2NC(=O)c1[nH]c2ccc(Cl)cc2c1C (centres undefined) here?
**A.** 1.5 µM

**Q.** And the EC50 (Influenza A virus H3N2 [2])?
**A.** 0.0012 µM

**Q.** What about the EC50 (Influenza A virus H3N2 [3]) of the same molecule?
**A.** 0.00077 µM

**Q.** And the MCC at 96 h [4]?
**A.** 3 µM

**Q.** What about the EC50 [5] of the same molecule?
**A.** 0.88 µM

**Q.** And the selectivity ratio at 96 h [6]?
**A.** 1950

**Q.** With Cc1c(C(=O)NN2C(=O)C(C)SC23CCC(C(C)(C)C)CC3)[nH]c2ccc(Cl)cc12 (centres undefined) as the molecule, how does the CC50 at 96 h [1] read?
**A.** 0.9 µM

**Q.** And the EC50 (Influenza A virus H3N2 [2])?
**A.** > 100 µM

**Q.** What about the EC50 (Influenza A virus H3N2 [3]) of the same molecule?
**A.** > 100 µM

**Q.** What about the MCC at 96 h [4] of the same molecule?
**A.** ≥ 4 µM

**Q.** Which CC50 at 96 h [1] does the source give for NC12CC3CC(CC(C3)C1)C2 [AMANTADINE] here?
**A.** > 200 µM

**Q.** What about the EC50 (Influenza A virus H3N2 [2]) of the same molecule?
**A.** 3.8 µM

**Q.** What about the EC50 (Influenza A virus H3N2 [3]) of the same molecule?
**A.** 1.2 µM

**Q.** And the MCC at 96 h [4]?
**A.** > 200 µM

**Q.** For Cc1c(C(=O)NN2C(=O)CSC23CCCC3)[nH]c2ccc(Cl)cc12, which CC50 at 96 h [1] is on record?
**A.** > 100 µM

**Q.** What about the EC50 (Influenza A virus H3N2 [2]) of the same molecule?
**A.** > 100 µM

**Q.** What about the EC50 (Influenza A virus H3N2 [3]) of the same molecule?
**A.** > 100 µM

**Q.** And the MCC at 96 h [4]?
**A.** > 100 µM

**Q.** Which EC50 [5] does the source give for CCOC(=O)c1c(CSc2ccccc2)n(C)c2cc(Br)c(O)c(CN(C)C)c12 [UMIFENOVIR] here?
**A.** 40 µM
